Reference: patent publication US6916843B1, “Anti-inflammatory actions of cytochrome P450 expoxygenase-derived eicosanoids” (The United States of America as represented by the …, priority 1999, dated 2005)
“Also recorded” adds a separate entry of the source. Ends that are not written are not given here.

Columns and labels:
[1] = tested on: bovine aortic endothelial cells (BAECs); assay: Hypoxia-reoxygenation-induced cell injury in BAECs (cell number, LDH release, trypan blue); type: cell-based; conditions: for hypoxia-reoxygenation-induced cell injury, epoxide hydrolase inhibitors: DCU 10 μmol/L and elaidamide 10 μmol/L added together prior to hypoxia
Protocol: Effects of P450-derived arachidonic acid metabolites on hypoxia-reoxygenalion-induced injury in BAECs. BAECs, either untransfected, or 48 hours after transfection with pcDNA3.1/GFP or pcDNA3.1/CYP2J2, or 10 min after treatment with eicosanoids, epoxide hydrolase inhibitors or vehicle, were exposed to hypoxia (95% nitrogen plus 5% carbon dioxide) for 24 hours, followed by reoxygenation (95% air plus 5% carbon dioxide) for 4 hours using an environmental chamber within a 37° C. incubator. Cells maintained under continuous (28 hours) normoxic conditions served as controls.
EETs were prepared by total chemical synthesis as previously described (Corey el al., 102 J. Am. Chem. Soc. 1433-1435 (1980), Falck et al., 23 Tetrahedron Lett. 1755-1756 (1982)). DHETs were prepared by chemical hydration of EETs as described by Capdevila et al., 187 Methods Enzymol. 386-394 (1990). Synthetic EETs and DHETs were purified by reverse-phase HPLC prior to use. BAECs, grown to ˜85% confluency, were treated with either synthetic [11,12]-EET, [11,12]-DHET, or [14,15]-EET in ethanol vehicle (1 μmol/L each, final concentration) for 10 min prior to exposure to hypoxia-reoxygenation. […] Cells treated with vehicle alone served as controls.
After hypoxia-reoxygenation, the cell number was determined using a hemocytometer and the degree of cell injury was assessed by measuring lactate dehydrogenase release into the culture medium using the CytoTox 96 Non-Radioactive Cytotoxicity Assay Kit (Promega, Madison, Wis.) and by counting the number of trypan blue dye stained cells. Data are expressed as a percentage of values obtained from control cells maintained under normoxic conditions.

NF-κB = NF-κB heterologous promoter (pκB.Luc) luciferase reporter in bovine endothelial cells; type: cell-based; conditions: 100 μM
Protocol: (§1) FIG. 2 is a set of bar graphs of cell-surface enzyme immunoassays. […] The difference between treatment with TNF-α alone and in the presence of [11,12]-EET were statistically significant (*p<0.05, **p<0.01), OD, optical density. […] After stimulation with TNF-α (10 ng/ml) in the presence or absence of EET, promoter activity was determined relative to basal activity. *p<0.01 vs. TNF-α alone.
(§2) To localize cis-acting elements in the VCAM-1 promoter that might mediate the inhibitory effects of [11,12]-EET, we transiently transfected bovine aortic endothelial cells with a −755 bp VCAM-1 promoter construct (DeCaterina et al., 96 J. Clin. Invest. 60 (1995)). Stimulation with TNF-α induced a 13-fold increase in relative VCAM-1 promoter activity that was abolished by cotreatment with [11,12]-EET. […] To confirm that the tandem κB sites in the VCAM-1 promoter are repressed by [11,12]-EET we subcloned them into a heterologous promoter construct containing the SV40 enhancer linked to the luciferase reporter gene (pκB.Luc). Stimulation of transfected endothelial cells with TNF-α induced a 6-fold increase in pκB.Luc promoter activity that was abolished by co-treatment with [11,12]-EET, but not [14,15]-EET (FIG. 2C). […] Compared to transfection with the empty pcDNA3.1 vector, overexpression of CYP2J2 decreased TNF-induced VCAM-1 and pκB.Luc promoter activity by 70-80% which were reversed in the presence of SKF525A (FIG. 2C). Neither transfection with CYP2J2 cDNA alone nor treatment with SKF525A alone affected basal promoter activity.

VCAM-1 promoter = VCAM-1 promoter construct activity in transiently transfected bovine aortic endothelial cells; type: cell-based; conditions: 100 μM
Text: as §2, with “-755” for “−755”, “SK[…]” for “SKF525A”

CYP2J2 = target: T1, CYP2J2 (Homo sapiens, UniProt P51589); assay: Arachidonic acid epoxygenase metabolite formation in CYP2J2-transfected bovine aortic endothelial cells (HPLC)
T1 construct: The CYP2J2 cDNA (1.9 kb) or GFP cDNA (0.75 kb) were subcloned into the plasmid pcDNA3.1; expressed in transfected cells; host or cells: bovine aortic endothelial cells (BAECs), transient transfection with pcDNA3.1/CYP2J2
T1 sequence (P51589 1-502): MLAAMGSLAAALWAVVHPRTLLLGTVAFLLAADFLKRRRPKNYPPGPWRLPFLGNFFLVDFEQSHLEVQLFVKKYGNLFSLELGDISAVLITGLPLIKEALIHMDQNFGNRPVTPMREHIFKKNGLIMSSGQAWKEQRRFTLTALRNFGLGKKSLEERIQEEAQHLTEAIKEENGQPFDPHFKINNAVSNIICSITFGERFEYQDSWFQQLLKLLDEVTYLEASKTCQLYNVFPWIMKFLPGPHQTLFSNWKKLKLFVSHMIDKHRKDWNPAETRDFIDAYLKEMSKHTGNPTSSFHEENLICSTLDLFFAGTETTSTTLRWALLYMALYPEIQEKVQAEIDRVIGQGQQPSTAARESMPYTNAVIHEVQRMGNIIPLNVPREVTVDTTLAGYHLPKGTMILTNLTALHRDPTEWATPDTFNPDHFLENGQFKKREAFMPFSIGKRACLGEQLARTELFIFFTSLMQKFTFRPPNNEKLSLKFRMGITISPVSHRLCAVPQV
Protocol: To study the formation of EETs by CYP2J2 in endothelial cells, we measured EET synthesis from bovine endothelial cells transfected with CYP2J2 cDNA. Early passage bovine aortic endothelial cells were grown to 60-70% confluence and transfected with either pcDNA3.1 or pcDNA3.1/CYP2J2 using Fugene™ 6 reagent (Boehringer Mannheim Corp.) according to the manufacturer's instructions. Using this method, the transfection efficiency was 10-20%. Forty-eight hours post-transfection, cells were washed twice with phosphate-buffered saline and incubated with freshly purified [^3H]arachidonic acid (185 Ci/mmol, 4-5 μCi/175 mm^2 flask) and unlabeled arachidonic acid (10 μM) was added before addition of arachidonic acid. At various time points, the media and cells were removed and extracted with diethyl ether. The combined organic phases were dried under a nitrogen stream, resolved by reverse-phase high performance liquid chromatography (HPLC) and quantified by liquid scintillation as described by Wu et al., 271 J. Biol. Chem. 3460 (1996). […]
These control GFP-transfected cells metabolized radiolabeled arachidonic acid to epoxygenase metabolites (EETs and DHETs) at a rate of ˜8 pmol/min/10^7 cells (FIG. 6). Endothelial cell arachidonic acid metabolism was determined as follows: Forty-eight hours after transfection with either pcDNA3.1/GFP or pcDNA3.1/CYP2J2, BAECs were incubated with freshly purified [5, 6, 8, 9, 11, 12, 14, 15-^3H]arachidonic acid (185 Ci/mmol, 4-5 μCi/175-mm^2 flask) in serurm-free culture medium at 37° C. for 30-120 min. […] The BAECs and culture medium were then collected and the reaction products extracted into ethyl ether, dried under a nitrogen stream, analyzed by reverse-phase HPLC, and quantified by on-line liquid scintillation using a Radiomatic Flo-One β detector (Radiomatic Instruments, Tampa, Fla.) as described (Wu et al., 271 J. Biol. Chem. 12551 (1996), Node et al., 285 Science 1276-1279 (1999)). […]

IκB kinase (IKK) = assay: IKK activity assay with GST-IκB-α substrate, TNF-α-stimulated endothelial cells; type: biochemical, human; conditions: 100 nM, TNF-α 10 ng/ml, 15 min
Protocol: A set of gel shift assays was performed. […] In some assays, [11,12]-EET (100 nM) was also added directly to the IKK assay (in vitro). As a control for nonspecific phosphorylation, the assay was performed without the addition of immunoprecipitated IKK (no enzyme) or in the presence of a IκB-α mutant (ΔSer 32, Ser 36→Thr) as substrate. The assay was performed three times with similar results.
Specificity of IKB was determined by the complete absence of phosphorylation when the mutated IκB-α substrate, GST-1κB-α (Δ32,36: S→T) which cannot be phosphorylated at serine residues 32 and 36, was substituted for wild-type GST-IκB-α.

VCAM-1 expression = assay: Cell-surface enzyme immunoassay of cytokine-induced VCAM-1 expression in endothelial cells; type: cell-based, human; conditions: KCa channel blocker 100 nM
Protocol: as §1
To determine the biological effects of EETs, we treated tumor necrosis factor alpha (TNF-α)-stimulated human endothelial cells with physiological relevant concentrations (1-100 nM) of [5,6]-EET, [8,9]-EET, [11,12]-EET, [14,15]-EET, [11,12]-DHET.

In the case of `O=C(NC1CCCCC1)NC1CCCCC1` [DCU, dicyclohexylurea, reference compound], the “hypoxia-reoxygenation-induced cell injury, epoxide hydrolase inhibitors” value [1] is reported as “significantly attenuates” and the “hypoxia-reoxygenation-induced cell injury, epoxide hydrolase inhibitors” value ([1]; listed as dicyclohexylurea) is reported as “limits”.
With `CCCC(C(=O)OCCN(CC)CC)(c1ccccc1)c1ccccc1` [SKF525A, reference compound] the “reversal of CYP2J2-mediated decrease of pκB.Luc promoter activity” value (NF-κB) was “reversed”, the “reversal of CYP2J2-mediated decrease of VCAM-1 promoter activity” value (VCAM-1 promoter) was “reversed” and the “inhibition of increased epoxygenase activity of CYP2J2-transfected BAECs” value (CYP2J2; 100 μmol/L) was “inhibited”. For the same compound, the “inhibition of formation of epoxygenase metabolites by CYP2J2 transfected cells” value (CYP2J2; inhibitor 100 μM) was greater than 80%.
`CCCCC/C=C\C/C=C\C/C=C\CC1OC1CCCC(=O)O` (stereo not drawn) [[5,6]-EET] was tested, and the “inhibition of TNF-α-induced IKK activity” value (IκB kinase (IKK)) was “to a lesser extent”.
`CCCCC/C=C\C/C=C\CC1OC1C/C=C\CCCC(=O)O` (stereo not drawn) [[8,9]-EET] was tested, and the “inhibition of TNF-α-induced IKK activity” value (IκB kinase (IKK)) was “to a lesser extent”.
In the case of `CCCCC/C=C\CC(O)C(O)C/C=C\C/C=C\CCCC(=O)O` (stereo not drawn) [[11,12]-DHET], the “hypoxia-reoxygenation-induced cell injury, number of trypan blue stained cells” value ([1]; 1 μmol/L, added 10 min prior to hypoxia (24 h hypoxia, 4 h reoxygenation)) is reported as “active in attenuating; also recorded: significantly attenuates”.
`CCCCCCCC/C=C/CCCCCCCC(N)=O` [elaidamide, reference compound] was tested, and the “hypoxia-reoxygenation-induced cell injury, epoxide hydrolase inhibitors” value [1] was “limits; also recorded: significantly attenuates”.
For charybodotoxin [reference compound], the “block of the inhibitory effect of [11,12]-EET on TNF-α-induced VCAM-1 expression” value (VCAM-1 expression) was “did not block”.
With “iberiotoxin (QFTDVDCSVSKECWSVCKDLFGVDRGKCMGKKCRCYQ; not fully specified (residue 1, bridges); cysteine pairing not given here; UniProt P24663 1-37, looked up) [reference compound]” the “block of the inhibitory effect of [11,12]-EET on TNF-α-induced VCAM-1 expression” value (VCAM-1 expression) was “did not block”.
